For orientation: AC50 means the concentration at which the activity in the assay is half-maximal. What is called IC50 is the concentration needed to halve the response being measured. By EC50 is commonly meant the midpoint of the concentration-response curve.

Activity calls are given as the source filed them. Where only a bound is given, the exact number is not on record here.

The target of assay [1] is ORF 73 (Human herpesvirus 8, UniProt O40947). Kind of assay: inhibitors of C-LANA binding to LBS DNA, dose response, biochemical, fluorescence polarization, cherry-picked samples (AID 504725).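 Note: fluorescence polarization of a labeled DNA duplex reporting LANA DNA binding; potency is for inhibitors that block LANA binding to the DNA.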 Further details: species or system Human gammaherpesvirus 8. For orientation: Polarisation of emitted light reports the rotation of a fluorescent probe.
Chain of ORF 73 (O40947 whole entry, the tested form may be a part): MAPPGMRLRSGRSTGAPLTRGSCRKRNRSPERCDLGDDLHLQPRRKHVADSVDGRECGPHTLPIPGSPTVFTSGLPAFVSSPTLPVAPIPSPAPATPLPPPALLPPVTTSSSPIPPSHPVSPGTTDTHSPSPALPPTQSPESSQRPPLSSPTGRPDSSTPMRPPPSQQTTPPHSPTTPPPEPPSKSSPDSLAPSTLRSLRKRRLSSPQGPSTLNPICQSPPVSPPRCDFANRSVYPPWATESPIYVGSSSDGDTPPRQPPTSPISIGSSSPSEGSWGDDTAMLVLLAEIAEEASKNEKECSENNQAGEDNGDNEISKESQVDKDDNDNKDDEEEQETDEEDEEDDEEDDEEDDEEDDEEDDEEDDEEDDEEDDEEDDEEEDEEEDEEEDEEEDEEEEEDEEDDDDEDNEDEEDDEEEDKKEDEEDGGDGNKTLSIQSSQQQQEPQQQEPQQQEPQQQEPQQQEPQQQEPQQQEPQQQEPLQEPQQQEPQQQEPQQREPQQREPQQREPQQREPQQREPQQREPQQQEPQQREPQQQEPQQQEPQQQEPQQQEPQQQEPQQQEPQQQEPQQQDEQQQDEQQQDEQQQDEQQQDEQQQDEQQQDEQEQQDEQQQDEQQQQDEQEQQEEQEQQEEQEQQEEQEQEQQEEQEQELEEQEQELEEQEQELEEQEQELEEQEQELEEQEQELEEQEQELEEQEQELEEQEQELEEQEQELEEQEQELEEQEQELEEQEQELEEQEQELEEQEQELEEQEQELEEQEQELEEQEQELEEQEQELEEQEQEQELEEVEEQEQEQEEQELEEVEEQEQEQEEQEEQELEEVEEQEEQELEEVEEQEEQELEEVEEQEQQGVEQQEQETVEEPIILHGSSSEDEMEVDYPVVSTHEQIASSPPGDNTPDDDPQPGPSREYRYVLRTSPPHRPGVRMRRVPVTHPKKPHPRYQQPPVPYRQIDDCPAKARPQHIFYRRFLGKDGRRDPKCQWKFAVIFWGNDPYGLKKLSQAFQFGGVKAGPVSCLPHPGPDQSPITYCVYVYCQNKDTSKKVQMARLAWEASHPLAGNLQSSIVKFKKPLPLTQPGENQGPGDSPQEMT
Assay [2] concerns the target T1, Carboxy-terminal domain RNA polymerase II polypeptide A small phosphatase 1 (Homo sapiens, UniProt Q9GZU7).
T1 sequence (Q9GZU7 whole entry): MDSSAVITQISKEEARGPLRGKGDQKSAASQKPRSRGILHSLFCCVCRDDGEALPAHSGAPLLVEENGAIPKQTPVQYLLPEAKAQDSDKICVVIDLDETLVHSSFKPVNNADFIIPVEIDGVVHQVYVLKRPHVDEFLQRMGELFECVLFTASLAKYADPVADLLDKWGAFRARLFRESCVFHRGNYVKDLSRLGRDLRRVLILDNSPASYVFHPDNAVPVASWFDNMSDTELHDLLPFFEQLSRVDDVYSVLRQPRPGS
Kind of assay: inhibitors of CTDSP1, concentration-response testing, biochemical assay, absorbance-based, actives from ultra-high-throughput screening (AID 540297). It is filed as functional.

Assay [3] has as its target DNA (cytosine-5)-methyltransferase 1 (Homo sapiens, UniProt P26358). Kind of assay: DNMT1 methyltransferase inhibitors, confirmation, biochemical, fluorescent molecular beacon (AID 602386). It is filed as functional.
In assay [4] the target is T2, Long-chain-fatty-acid--AMP ligase FadD28 (Mycobacterium tuberculosis, UniProt P9WQ59).
T2 sequence (P9WQ59 whole entry): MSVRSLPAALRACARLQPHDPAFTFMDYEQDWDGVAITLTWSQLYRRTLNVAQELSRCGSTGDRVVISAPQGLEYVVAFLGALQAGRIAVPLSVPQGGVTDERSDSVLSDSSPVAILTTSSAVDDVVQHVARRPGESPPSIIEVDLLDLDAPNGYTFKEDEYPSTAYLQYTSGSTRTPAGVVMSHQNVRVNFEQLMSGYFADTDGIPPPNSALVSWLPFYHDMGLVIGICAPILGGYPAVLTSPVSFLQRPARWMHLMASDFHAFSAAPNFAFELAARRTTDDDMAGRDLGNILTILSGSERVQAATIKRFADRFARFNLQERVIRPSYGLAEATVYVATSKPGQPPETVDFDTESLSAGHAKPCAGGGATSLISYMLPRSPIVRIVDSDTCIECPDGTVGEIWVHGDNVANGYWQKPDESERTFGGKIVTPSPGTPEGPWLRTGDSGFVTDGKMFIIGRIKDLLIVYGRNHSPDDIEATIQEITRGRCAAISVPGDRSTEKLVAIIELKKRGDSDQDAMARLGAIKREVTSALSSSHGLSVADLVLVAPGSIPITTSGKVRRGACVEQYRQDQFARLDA
The experiment in a line: Fluorescence polarization aasay to screen for inhibitors that compete for the binding of FadD28 to a bisubstrate Measured in Biochemical System Using Plate Reader - 2147-01_Inhibitor_Dose_CherryPick_Activity. It is filed as functional, Mycobacterium tuberculosis H37Rv.

Assay [5] concerns the target T3, Tyrosine-protein phosphatase non-receptor type 7 (Homo sapiens, UniProt P35236).
T3 sequence (P35236 whole entry): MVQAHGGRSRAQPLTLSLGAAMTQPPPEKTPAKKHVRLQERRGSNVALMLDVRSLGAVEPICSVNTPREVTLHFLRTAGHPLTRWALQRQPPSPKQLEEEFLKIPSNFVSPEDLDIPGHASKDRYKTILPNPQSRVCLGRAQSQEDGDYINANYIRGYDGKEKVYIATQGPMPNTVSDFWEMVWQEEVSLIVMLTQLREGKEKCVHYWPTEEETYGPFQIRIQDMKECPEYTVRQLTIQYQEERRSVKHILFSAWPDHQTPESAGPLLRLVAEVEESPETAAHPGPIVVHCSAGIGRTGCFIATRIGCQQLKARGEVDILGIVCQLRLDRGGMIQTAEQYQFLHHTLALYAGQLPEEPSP
It is filed as functional.

Assay [6] addresses T4, Tyrosine-protein phosphatase non-receptor type 22 (Homo sapiens, UniProt Q9Y2R2).
T4 sequence (Q9Y2R2 whole entry): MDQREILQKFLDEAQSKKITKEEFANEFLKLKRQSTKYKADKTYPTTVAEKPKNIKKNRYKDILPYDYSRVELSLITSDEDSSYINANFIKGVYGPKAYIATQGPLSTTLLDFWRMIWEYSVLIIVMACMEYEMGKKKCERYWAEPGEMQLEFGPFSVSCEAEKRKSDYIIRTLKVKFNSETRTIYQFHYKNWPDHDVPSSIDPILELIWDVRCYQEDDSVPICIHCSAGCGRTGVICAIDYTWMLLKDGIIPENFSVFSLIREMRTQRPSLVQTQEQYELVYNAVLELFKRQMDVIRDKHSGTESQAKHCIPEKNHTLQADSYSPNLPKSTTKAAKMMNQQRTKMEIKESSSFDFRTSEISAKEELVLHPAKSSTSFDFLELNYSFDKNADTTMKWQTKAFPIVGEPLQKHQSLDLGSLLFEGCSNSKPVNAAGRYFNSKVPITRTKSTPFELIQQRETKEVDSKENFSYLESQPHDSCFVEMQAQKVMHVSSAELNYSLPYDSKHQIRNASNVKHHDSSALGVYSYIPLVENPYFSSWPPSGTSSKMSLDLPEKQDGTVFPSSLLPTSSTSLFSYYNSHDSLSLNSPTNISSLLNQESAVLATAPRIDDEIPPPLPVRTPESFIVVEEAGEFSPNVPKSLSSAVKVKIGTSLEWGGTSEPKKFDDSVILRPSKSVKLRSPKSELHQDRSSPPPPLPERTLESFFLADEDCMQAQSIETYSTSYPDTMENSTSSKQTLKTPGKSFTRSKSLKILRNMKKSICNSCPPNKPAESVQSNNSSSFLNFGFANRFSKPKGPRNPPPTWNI
It is filed as functional.

Assay [7] deals with T4, Tyrosine-protein phosphatase non-receptor type 22. It is filed as functional. The source holds these as a separate data set.
Assay [8] addresses Trypsin (Sus scrofa, UniProt P00761). The experiment in a line: porcine trypsin inhibitors, dose response, selectivity assay for Rce1 protease inhibitor project, biochemical, quenched peptide fluorescence, cherry-pick (AID 488789).
Assay [9] deals with T5, CAAX prenyl protease 2 (Saccharomyces cerevisiae S288c, UniProt Q03530).
T5 sequence (Q03530 whole entry): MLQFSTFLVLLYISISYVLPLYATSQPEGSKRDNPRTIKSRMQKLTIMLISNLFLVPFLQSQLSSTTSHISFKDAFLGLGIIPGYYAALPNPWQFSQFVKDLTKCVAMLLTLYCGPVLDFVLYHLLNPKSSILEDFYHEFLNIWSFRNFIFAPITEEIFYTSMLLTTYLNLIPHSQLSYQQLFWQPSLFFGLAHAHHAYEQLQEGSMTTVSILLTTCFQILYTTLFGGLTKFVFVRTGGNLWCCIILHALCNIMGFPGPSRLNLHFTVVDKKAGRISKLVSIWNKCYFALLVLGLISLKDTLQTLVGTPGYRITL
It is filed as biochemical.

The test system of assay [10] is HEK293. The experiment in a line: NOD1 signaling inhibitors, primary screen, cell-based, luminescence, uHTS (AID 1578). It is filed as functional. The conditions noted are these: Homo sapiens.
Assay [11] deals with Nucleotide-binding oligomerization domain-containing protein 2 (Homo sapiens, UniProt Q9HC29). Kind of assay: NOD2 signaling inhibitors, cell-based, luminescence, uHTS, HEK293 (AID 1566). It is filed as functional.
Chain of Nucleotide-binding oligomerization domain-containing protein 2 (Q9HC29 whole entry, the tested form may be a part): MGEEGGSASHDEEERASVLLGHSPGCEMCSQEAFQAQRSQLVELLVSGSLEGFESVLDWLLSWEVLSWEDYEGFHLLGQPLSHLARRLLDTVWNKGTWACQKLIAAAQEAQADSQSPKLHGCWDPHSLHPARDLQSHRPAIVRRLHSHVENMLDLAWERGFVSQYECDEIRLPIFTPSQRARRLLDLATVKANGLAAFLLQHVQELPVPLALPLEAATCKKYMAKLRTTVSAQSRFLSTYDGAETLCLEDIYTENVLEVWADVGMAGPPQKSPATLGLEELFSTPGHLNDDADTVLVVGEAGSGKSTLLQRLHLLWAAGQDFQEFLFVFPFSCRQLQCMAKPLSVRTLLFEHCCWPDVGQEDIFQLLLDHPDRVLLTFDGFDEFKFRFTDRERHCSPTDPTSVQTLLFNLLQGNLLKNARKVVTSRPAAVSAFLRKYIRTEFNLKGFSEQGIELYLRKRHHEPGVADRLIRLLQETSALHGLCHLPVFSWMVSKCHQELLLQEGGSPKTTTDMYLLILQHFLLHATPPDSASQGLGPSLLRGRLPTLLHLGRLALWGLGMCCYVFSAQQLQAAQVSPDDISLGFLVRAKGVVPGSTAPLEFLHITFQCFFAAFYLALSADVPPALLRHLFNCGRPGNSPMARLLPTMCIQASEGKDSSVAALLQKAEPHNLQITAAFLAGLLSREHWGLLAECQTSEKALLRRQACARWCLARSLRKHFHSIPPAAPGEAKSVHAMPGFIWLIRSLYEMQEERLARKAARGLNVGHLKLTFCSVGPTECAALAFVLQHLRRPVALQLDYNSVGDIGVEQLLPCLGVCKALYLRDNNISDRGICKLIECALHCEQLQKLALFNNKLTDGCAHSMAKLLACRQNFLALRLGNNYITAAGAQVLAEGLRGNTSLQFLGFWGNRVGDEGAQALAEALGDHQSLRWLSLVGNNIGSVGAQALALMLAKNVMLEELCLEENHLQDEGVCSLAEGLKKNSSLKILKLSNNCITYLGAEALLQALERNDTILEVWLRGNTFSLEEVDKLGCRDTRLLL
Assay [12] relates to HEK293. Kind of assay: NOD2 signaling inhibitors in MDP-stimulated cells, cell-based, uHTS, luminescence (AID 2001). It is filed as functional. The following applies: Homo sapiens.
Assay [13] has as its system HEK293. The experiment in a line: cells. It is filed as functional, cell-based. The conditions noted are these: Homo sapiens.
Assay [14] deals with T6, Nucleotide-binding oligomerization domain-containing protein 1 (Homo sapiens, UniProt Q9Y239).
T6 sequence (Q9Y239 whole entry): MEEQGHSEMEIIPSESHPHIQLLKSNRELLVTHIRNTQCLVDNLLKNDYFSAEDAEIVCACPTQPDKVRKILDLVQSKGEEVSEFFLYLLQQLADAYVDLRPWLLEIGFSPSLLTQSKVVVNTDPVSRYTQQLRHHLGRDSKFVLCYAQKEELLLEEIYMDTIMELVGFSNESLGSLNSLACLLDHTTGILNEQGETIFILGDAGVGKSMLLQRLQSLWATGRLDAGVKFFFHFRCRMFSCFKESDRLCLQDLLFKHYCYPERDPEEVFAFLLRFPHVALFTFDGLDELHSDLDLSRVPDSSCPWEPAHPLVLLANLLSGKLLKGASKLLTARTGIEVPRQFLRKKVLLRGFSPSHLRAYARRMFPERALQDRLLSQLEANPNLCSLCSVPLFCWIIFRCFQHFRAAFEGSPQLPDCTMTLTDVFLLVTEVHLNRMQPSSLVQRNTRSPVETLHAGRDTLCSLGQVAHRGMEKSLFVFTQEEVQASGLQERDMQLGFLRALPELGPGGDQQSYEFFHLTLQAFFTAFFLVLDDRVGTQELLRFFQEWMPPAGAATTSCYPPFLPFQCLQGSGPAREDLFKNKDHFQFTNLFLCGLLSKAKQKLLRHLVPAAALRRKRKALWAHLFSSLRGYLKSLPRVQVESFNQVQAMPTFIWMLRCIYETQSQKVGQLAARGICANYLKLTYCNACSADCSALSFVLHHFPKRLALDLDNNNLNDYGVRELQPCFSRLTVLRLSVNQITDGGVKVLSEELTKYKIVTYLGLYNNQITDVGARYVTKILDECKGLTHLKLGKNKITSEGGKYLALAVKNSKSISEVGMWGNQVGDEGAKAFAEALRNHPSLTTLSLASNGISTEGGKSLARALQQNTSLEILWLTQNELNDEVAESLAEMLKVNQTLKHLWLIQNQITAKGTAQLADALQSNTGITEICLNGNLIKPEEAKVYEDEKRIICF
The experiment in a line: NOD1 signaling inhibitors, SAR follow-up, revised (AID 2333). It is filed as functional.

Assay [15] is described as follows: Shn3 3'UTR reporter inhibitors, dose response, cell-based, Clone20 osteoblasts, firefly luciferase, cherry-picked (AID 624132).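 Note: firefly luciferase luminescence from reporter carrying the Shn3 3'UTR in osteoblasts.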 It is filed as functional.
Assay [16] in a line: HepG2 cell cytotoxicity, dose response, cytotoxicity control for Shn3 inhibitor project, CellTiter-Glo, cherry-picked (AID 624134). It is filed as functional, cell-based. Background: Cellular ATP, detected with luciferase, serves as a proxy for viable cell number.
A short description of assay [17]: control 3'UTR Renilla luciferase suppression, dose response, counter-screen for Shn3 inhibitor project, cell-based, Clone20-Shn3RL, cherry-picked (AID 624133). It is filed as functional. A general note: Counterscreens check selectivity or assay interference.
Assay [18] has as its target Alkaline phosphatase, placental type (Homo sapiens, UniProt P05187). Kind of assay: PLAP enzyme inhibitors, confirmation, biochemical, luminescence (AID 1512). It is filed as functional.
The target in assay [19] is T7, Alkaline phosphatase, tissue-nonspecific isozyme (Homo sapiens, UniProt P05186).
T7 sequence (P05186 whole entry): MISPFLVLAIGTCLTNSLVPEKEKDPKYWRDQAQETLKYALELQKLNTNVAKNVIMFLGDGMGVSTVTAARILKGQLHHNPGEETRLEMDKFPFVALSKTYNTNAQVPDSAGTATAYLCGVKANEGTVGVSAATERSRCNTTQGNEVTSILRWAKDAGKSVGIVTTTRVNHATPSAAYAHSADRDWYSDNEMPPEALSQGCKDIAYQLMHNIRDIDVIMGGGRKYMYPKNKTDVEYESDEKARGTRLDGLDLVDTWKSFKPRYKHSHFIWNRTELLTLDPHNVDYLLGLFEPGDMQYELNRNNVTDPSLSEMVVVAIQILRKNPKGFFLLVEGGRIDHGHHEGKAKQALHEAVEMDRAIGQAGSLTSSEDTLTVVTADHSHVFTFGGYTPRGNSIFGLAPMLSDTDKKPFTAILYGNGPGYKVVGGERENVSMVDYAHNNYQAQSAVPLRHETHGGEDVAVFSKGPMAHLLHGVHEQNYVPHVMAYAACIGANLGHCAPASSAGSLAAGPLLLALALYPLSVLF
The experiment in a line: human TNAP enzyme inhibitors, SAR follow-up, biochemical, luminescent, dose response (AID 1056).

Chain of Alkaline phosphatase, placental type (P05187 whole entry): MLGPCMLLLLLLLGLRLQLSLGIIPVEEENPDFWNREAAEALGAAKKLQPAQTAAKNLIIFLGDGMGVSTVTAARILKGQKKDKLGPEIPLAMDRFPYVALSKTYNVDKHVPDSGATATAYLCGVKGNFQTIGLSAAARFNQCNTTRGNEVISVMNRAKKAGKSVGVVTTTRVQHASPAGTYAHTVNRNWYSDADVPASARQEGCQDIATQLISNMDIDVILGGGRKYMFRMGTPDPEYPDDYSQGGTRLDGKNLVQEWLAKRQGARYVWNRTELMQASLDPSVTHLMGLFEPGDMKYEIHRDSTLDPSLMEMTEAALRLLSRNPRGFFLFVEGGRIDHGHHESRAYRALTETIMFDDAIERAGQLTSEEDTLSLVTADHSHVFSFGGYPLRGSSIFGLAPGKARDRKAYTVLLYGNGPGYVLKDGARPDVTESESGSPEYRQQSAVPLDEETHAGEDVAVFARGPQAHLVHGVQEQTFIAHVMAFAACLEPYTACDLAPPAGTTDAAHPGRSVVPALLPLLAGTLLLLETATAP
Chain of Trypsin (P00761 whole entry): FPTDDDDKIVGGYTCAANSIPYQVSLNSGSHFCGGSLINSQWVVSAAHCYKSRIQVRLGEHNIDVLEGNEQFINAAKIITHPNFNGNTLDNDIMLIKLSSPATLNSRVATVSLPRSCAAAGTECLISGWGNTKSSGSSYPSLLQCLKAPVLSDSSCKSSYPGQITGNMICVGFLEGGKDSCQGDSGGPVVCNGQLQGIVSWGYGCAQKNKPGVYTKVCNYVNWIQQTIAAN
Chain of DNA (cytosine-5)-methyltransferase 1 (P26358 whole entry): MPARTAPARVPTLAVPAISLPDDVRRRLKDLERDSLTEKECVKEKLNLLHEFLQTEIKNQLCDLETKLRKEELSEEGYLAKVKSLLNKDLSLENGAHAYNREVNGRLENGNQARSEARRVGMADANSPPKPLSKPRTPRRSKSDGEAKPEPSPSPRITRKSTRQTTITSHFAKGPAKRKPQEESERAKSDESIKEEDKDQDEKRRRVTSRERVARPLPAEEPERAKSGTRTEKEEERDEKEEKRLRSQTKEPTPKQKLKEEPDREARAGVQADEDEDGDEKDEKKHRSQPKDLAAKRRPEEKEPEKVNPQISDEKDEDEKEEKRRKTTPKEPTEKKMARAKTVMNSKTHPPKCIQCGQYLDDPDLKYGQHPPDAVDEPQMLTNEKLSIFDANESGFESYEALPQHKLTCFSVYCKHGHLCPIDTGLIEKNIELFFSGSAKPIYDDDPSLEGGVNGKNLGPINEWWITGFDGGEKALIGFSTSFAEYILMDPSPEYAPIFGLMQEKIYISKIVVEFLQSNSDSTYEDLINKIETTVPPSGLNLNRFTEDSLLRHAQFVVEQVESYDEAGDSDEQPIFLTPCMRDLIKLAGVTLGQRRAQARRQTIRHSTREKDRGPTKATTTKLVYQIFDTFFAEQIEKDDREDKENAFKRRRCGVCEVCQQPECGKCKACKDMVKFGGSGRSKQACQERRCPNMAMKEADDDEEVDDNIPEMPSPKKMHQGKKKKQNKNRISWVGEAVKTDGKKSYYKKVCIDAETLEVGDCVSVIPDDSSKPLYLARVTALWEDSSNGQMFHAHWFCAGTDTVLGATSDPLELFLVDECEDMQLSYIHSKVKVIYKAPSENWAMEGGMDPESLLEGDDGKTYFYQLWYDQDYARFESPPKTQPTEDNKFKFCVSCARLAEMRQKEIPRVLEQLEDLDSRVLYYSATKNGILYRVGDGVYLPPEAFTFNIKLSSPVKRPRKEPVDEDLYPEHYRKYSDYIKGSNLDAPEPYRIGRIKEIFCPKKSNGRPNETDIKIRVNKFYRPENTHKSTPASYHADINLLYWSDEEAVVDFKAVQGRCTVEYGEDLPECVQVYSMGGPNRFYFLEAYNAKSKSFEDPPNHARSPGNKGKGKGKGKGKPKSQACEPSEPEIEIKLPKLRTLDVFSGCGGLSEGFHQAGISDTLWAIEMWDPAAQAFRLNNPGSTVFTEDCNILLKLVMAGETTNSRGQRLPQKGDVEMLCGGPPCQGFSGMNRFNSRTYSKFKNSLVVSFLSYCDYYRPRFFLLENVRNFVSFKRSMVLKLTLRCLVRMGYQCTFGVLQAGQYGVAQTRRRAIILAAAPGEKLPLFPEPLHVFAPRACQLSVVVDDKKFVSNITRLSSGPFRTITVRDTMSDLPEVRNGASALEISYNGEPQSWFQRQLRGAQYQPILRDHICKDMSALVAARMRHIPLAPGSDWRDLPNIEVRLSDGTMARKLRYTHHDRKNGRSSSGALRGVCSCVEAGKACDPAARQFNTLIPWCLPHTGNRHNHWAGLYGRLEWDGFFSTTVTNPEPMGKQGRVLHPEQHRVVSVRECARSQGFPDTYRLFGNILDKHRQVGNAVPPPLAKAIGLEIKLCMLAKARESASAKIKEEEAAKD

On to `Cc1ccccc1NC(=O)CN1C(=O)N/C(=C\c2cccn2-c2cccc(C(=O)O)c2)C1=O`, for which the half-maximal activity concentration (AC50) in assay [1] is 74.7 µM (active); in [4], 55.3 µM (active). Besides, the IC50 in assay [2] is 4.42 µM (active); in [3], 6.37 µM (active).

Consider `COc1ccc(Cl)cc1-c1nc(N)nc(NC2CCCCC2)n1`, for which the IC50 in assay [5], in assay [6] and in assay [7] was > 79.4 µM (inactive) in each case.

In the case of `CCN(CC)Cc1c(O)ccc2c(=O)c(-c3ccccc3OC)coc12`, the half-maximal activity concentration (AC50) in assay [8] is 21.4 µM (active); in assay [9] it was 13.8 µM (active).

Consider `CC1=C(C(=O)NC2CCCc3c2cnn3-c2cccc(C)c2C)OCCO1` (stereo unspecified), for which the 50% effective concentration (EC50) in [10] is 5.36 µM (active); in [11] it was > 20 µM (inactive). The IC50 was 11.6 µM (inactive) in [12], > 20 µM (inactive) in assay [13] and 4.06 µM (active) in assay [14]. For the same compound, the AC50 is 3.49 µM (active) in [15], 34.1 µM (active) in assay [16] and 3.14 µM (active) in assay [17].

For the compound `COc1ccc(-c2cc(C(=O)NCCc3ccc(O)c(O)c3)c3ccccc3n2)cc1`, the IC50 in assay [18] and in assay [19] was > 100 µM (inactive) in each case.

In the case of `CCOc1ccc(-n2c(SCC(=O)c3ccc(O)c(O)c3)nnc2-c2ccc(OC)cc2)cc1`, the IC50 in assay [18] and in assay [19] was > 100 µM (inactive) each time.

The record behind these values is ChEMBL document CHEMBL1201862, “PubChem BioAssay data set” (2004).
